9 compounds from BindingDB's records for doi:10.1016/j.chembiol.2010.07.014 (Brandeis University, 2010) can be followed below.

Holding throughout (test): Inhibition Assay
What all share (details): pH 8; 25 °C

For test [1], the target named is T1, Inosine-5'-monophosphate dehydrogenase (Helicobacter pylori (strain G27), UniProt B5Z7J4).
T1 sequence (B5Z7J4 whole entry): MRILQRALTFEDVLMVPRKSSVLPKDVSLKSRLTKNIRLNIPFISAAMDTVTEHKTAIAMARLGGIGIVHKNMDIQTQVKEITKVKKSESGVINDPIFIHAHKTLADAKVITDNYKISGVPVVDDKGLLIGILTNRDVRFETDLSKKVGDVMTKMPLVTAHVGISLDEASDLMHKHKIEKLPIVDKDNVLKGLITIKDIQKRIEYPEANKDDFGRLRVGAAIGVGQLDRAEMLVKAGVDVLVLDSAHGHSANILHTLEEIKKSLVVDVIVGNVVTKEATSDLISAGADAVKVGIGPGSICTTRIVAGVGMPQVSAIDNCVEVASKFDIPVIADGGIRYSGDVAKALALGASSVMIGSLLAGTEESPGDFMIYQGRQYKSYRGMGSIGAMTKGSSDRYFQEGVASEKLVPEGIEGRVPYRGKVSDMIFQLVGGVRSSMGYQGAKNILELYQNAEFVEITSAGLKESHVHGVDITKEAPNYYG
An excerpt:
(§1) Inhibition assay using inosine 5'-onophosphate dehydrogenase (IMPD).

Test [2] deals with Inosine-5'-monophosphate dehydrogenase (Streptococcus pyogenes, UniProt P0C0H6).
Sequence of Inosine-5'-monophosphate dehydrogenase (Streptococcus pyogenes, UniProt P0C0H6) (P0C0H6 whole entry): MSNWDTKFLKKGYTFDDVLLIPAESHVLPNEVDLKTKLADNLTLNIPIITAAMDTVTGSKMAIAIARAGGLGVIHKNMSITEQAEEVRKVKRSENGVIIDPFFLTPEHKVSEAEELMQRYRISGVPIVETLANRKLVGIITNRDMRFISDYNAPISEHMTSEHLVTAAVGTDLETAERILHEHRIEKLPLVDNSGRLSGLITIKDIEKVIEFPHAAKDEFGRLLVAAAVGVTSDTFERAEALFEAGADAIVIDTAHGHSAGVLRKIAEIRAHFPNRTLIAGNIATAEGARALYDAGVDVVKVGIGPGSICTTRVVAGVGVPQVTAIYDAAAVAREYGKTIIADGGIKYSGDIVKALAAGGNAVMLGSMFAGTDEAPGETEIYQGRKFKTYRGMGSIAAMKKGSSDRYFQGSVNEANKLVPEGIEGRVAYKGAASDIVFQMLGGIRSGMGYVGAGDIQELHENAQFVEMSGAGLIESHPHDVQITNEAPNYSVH
Source text: as §1

Test [3] concerns the target T2, Inosine-5'-monophosphate dehydrogenase (Borreliella burgdorferi (strain ATCC 35210 / DSM 4680 / CIP 102532 / B31), UniProt P49058).
T2 sequence (P49058 whole entry): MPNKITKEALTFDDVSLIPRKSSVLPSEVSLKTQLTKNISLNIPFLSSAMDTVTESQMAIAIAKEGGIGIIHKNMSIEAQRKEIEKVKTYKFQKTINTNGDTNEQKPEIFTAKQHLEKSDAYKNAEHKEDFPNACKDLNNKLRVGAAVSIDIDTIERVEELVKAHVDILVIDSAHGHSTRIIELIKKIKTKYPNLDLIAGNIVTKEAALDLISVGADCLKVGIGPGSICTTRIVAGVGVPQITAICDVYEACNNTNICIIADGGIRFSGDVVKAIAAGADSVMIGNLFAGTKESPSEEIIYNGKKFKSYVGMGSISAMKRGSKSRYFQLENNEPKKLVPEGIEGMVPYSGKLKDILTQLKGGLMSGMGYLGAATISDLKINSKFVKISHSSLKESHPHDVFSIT
Source text: as §1

Test [4] concerns the target T3, Inosine-5'-monophosphate dehydrogenase (Cryptosporidium parvum, UniProt Q8T6T2).
T3 sequence (Q8T6T2 whole entry): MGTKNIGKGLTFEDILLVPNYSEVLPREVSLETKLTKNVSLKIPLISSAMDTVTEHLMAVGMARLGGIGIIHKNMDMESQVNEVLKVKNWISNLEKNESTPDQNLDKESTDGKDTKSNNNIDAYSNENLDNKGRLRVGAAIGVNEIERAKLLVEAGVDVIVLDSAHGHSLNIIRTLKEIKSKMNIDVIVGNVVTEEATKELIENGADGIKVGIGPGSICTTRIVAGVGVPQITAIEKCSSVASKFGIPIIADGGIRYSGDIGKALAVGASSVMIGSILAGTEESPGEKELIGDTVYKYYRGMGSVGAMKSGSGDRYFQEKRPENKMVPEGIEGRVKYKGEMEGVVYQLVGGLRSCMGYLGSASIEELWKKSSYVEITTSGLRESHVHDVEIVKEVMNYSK
Source text: as §1

Structures are written as SMILES.

By IC50 is commonly meant the point on the concentration scale where inhibition reaches its midpoint. High values mean lower potency, low ones higher potency. On to `CC(Oc1ccccc1)C(=O)Nc1ccc(Cl)cc1` (centres undefined), for which the figures for the half-inhibitory concentration (IC50) in test [1], in test [2] and in test [3] were 2.2 µM, 96 µM and 1.4 µM, respectively.

With `Nc1ccc(C(=O)OCc2nc3cc4ccccc4cc3[nH]2)cc1` [1H-naphtho[2,3-d]imidazol-2-ylmethyl 4-aminobenzoate, Compound G], the IC50 was determined as 0.1 µM in test [4], 0.3 µM in test [1], 0.55 µM in test [2] and 0.22 µM in test [3].

Turning to `Nc1ccc(C(=O)OCCCc2nc3cc4ccccc4cc3[nH]2)cc1` [3-{1H-naphtho[2,3-d]imidazol-2-yl}propyl 4-aminobenzoate, Compound H], the IC50 was 0.9 µM in test [4], 1.2 µM in test [1], 0.86 µM in test [2] and 0.9 µM in test [3].

On to `COc1ccc(NC(=O)Cc2nn(C)c(=O)c3ccccc23)cc1` [N-(4-methoxyphenyl)-2-(3-methyl-4-oxo-3,4-dihydrophthalazin-1-yl)acetamide, Compound D], for which the IC50 in test [4] turned out to be 5.4 µM; in test [1] it was 3 µM; in test [2], 49 µM; in test [3] it was 1.7 µM.

As to `COc1ccc(NC(=O)Cc2cccc3ccccc23)cc1` [N-(4-methoxyphenyl)-2-(naphthalen-1-yl)acetamide, Compound B], the IC50 came out at 1.6 µM in test [4], 1.3 µM in test [1], 85 µM in test [2] and 1.8 µM in test [3].

Regarding `COc1ccc(NC(=O)Cn2c(-c3cscn3)nc3ccccc32)cc1` [N-(4-methoxyphenyl)-2-[2-(1,3-thiazol-4-yl)-1H-1,3-benzodiazol-1-yl]acetamide, Compound C], the IC50 in test [4] was determined as 1.2 µM; in test [1] it was 0.6 µM; in test [2], 70 µM; in test [3], 0.6 µM.

With `O=C(Cn1c(-c2ccccn2)nc2ccccc21)Nc1ccc2ccccc2c1` [N-(naphthalen-2-yl)-2-[2-(pyridin-2-yl)-1H-1,3-benzodiazol-1-yl]acetamide, Compound C91], the IC50 came to 0.008 µM in test [4], 0.0011 µM in test [1] and 0.0054 µM in test [2].

Regarding `CCn1c(SCC(=O)Nc2ccc(OC)cc2)nc2ccsc2c1=O` [l-4-oxo-3H,4H-thieno[3,2-d]pyrimidin-2-yl}sulfanyl)-N-(4-methoxyphenyl)acetamide, Compound F], the half-inhibitory concentration (IC50) in test [4] is 1.4 µM; in test [1], 1.1 µM; in test [2] it was 13 µM; in test [3], 0.8 µM.

In the case of `COC(=O)c1c(C)c(=O)[nH]c2ccccc12` [methyl 3-methyl-2-oxo-1,2-dihydroquinoline-4-carboxylate, Compound E], the IC50 in test [4] stood at 1.6 µM; in test [1] it was 1.5 µM; in test [2], 15 µM; in test [3] it was 0.9 µM.
